# Patent publication US20220288082A1, “TREATMENT OF DEMENTIA” (Macquarie University, priority 2019, published 2022)
# Assays:
# LIMK1 = biological target: T1, LIMK1 (Homo sapiens, UniProt P53667); test: LIMK1 activity assay (commercial, Promega); format: biochemical; details: in vitro; LIMKi at 100 μm, 10 μm, 1 μm, 0.1 μm; DMSO did not inhibit
# T1 construct: purchased Promega
# Description: LIMK1 activity assay. LIMK1 activity in the absence or presence of different concentrations of LIMKi (or DMSO) was determine with a commercial assay following the manufacturer's instructions (Promega).
# [1] = tested on: C57B^1/6 primary mouse neurons; test: Aβ toxicity in cultured primary neurons (dendritic spine loss, cell viability); format: cell-based; details: pre-treatment, 0.05 μM oligomeric Aβ
# Procedure: C57B^1/6 primary mouse neurons were treated with Compound 1 shown below (also referred to herein as LIMKi) together with 0.05 μM oligomeric Aβ (oAβ ) and determined loss of dendritic spines and cell viability.
# Aβ treated neurons presented with loss of spines and reduced viability. […] Next, the inventors determined the potential short-term effects of Compound 1 in vivo. […] Next, the inventors tested the effects of acute Compound 1 administration on neuronal network activity in APP23 mice. […] Furthermore, CFC 1 hour after Compound 1 administration was re-established (data not shown). […] Thus, inhibition of LIMK1 with Compound 1 conferred protection from Aβ toxicity in neurons and from excitotoxicity in vivo. Furthermore, treatment of APP23 with Compound 1 corrected network aberrations including CFC.
# C57B^1/6 mice = test: PTZ-induced excitotoxic seizure model; format: in vivo, mouse; details: for mean seizure severity: n=9
# Procedure: (§1) FIG. 4. LIMK1 inhibition reduced susceptibility to induced seizures and mitigated neuronal network hypersynchronicity and memory deficits in a mouse model of Alzheimer's disease. (A) Excitotoxic seizures were induced by acute intraperitoneal injection of 50 mg/kg body weight pentylenetetrazole (PTZ) followed by timing and scoring (0=no seizures to 7=terminal status epilepticus) of seizure development. Mice were treated with vehicle or 10 mg/kg body weight LIMK1 inhibitor (LIMKi) intraperitoneally 30 minutes prior to seizure induction. […] Only vehicle-treated mice develop severe seizure stages over time (i.e. score=5). […] (B) Compound hippocampal electroencephalography (EEG) recordings over 4 hours in non-transgenic (wt) and APP transgenic (APP23) mice including 2 hours before (Pre) and 2 hours after (Post) LIMKi or vehicle administration. Time of intraperitoneal LIMKi and vehicle administration is indicated with an arrow. […] Frequent spikes pre and post vehicle administration in APP23 mice. In contrast, LIMKi injection mitigates spike activity in APP23 post injection. […] (E) Chronic Limkl inhibition reverts memory deficits in AD mice. APP23 mice develop memory deficits in the Morris water maze (MWM) paradigm at 3 months of age. Treatment with 10 mg/kg LIMKi i.p. (3-4 times per week) was initiated at 3 months of age and continued for =4 months before MWM testing at 7 months of age. […] For bar graphs in (C) and (E), from left to right: non-Tg +vehicle; non-Tg+LIMKi; APP23+vehicle; APP23+LIMKi.
# Seizure model. Excitotoxic seizure were induced in mice by intraperitoneal injection of 50 mg/kg body weight pentylenetetrazole followed by observation in a square area (40×40 cm). Scoring of seizures was done as previously described (Ittner et al., 2010, Cell 142, 387-397). For LIMKi-treated mice, scoring was adjusted by combining the severe seizure scores 5 to 7 into a single score of 5. For both scales, minor to moderate seizures are reflected by scores <5.
# APP23 mice [2] = test: Hippocampal telemetric EEG recordings (spikes, cross frequency coupling); format: in vivo, mouse; details: for amplitude phase in EEG recordings / modulation index of cross frequency coupling / spike frequency / hypersynchronous discharges in EEG: n=8; for spike frequency / hypersynchronous discharges in EEG: i.p., 2 hours pre vs 2 hours post administration
# Procedure: as §1
# Electroencephalography. Hippocampal EEG recordings were done with implanted telemetric electrodes (D.S.I.) as previously described (Ittner et al., 2014, Acta neuropathologica communications 2, 149). All recordings were done with mice individually housed in their home cages one week after implantation of transmitters. Compound administration was done intraperitoneally during transient restraining of mice. Vehicle for the LIMK1 inhibitor LIMKi contained hydroxypropyl methylcellulose 606 (HPMC 606) with polyvinylpyrrolidone k17 (PVP k17) and tween 80 in a proportion of 0.5%, 0.5%, 0.1%, respectively. Spike analysis was done with the Neuroscore software module (D.S.I.) as previously described (Ittner et al., 2016, Science 354, 904-908). Cross frequency coupling of theta and gamma waves was performed as previously described (Ittner et al., 2016, Science 354, 904-908).
# APP23 mice [3] = test: Morris water maze memory testing after chronic treatment; format: in vivo, mouse
# Procedure: as §1
# Memory testing. Memory of mice was assessed in the water T maze paradigm and Morris water maze following published protocols (Ittner et al., 2010, Cell 142, 387-397; Ke et al., 2015, Acta Neuropathol 130, 661-678). Chronic treatment of mice was done by 3-4 times per week intraperitoneal injection of 10 mg/kg LIMKi or vehicle (0.5% hydroxypropyl methylcellulose 606 (HPMC 606), 0.5% polyvinylpyrrolidone k17 (PVP k17) and 0.1% tween 80) starting at 3 months of age and continued until 7 months of age. All mice were acclimatized to the test rooms prior to testing.
# Encouraged by the short-term effects of Compound 1 in neurons and APP23 mice (Example 3), the inventors tested whether long-term treatment could improve memory deficits in APP23 mice. 3-month old APP23 mice were treated for four months before being subjected to memory testing in the MWM. APP23 mice present with significant memory deficits at 3 months of age, that progress with age (Ittner et al., 2016, Science 354:904-908). An intermittent treatment schedule was chosen to avoid potential inhibition of astrocyte-mediated AP clearance that could mask therapeutic effects. At 7 months of age, vehicle-treated APP23 mice presented with significant memory deficits as compared to vehicle-treated non-transgenic mice (FIG. 4E).
# [4] = 10 mg/kg i.p. 30 minutes prior to 50 mg/kg PTZ, vs vehicle
# [5] = APP23 mice, 1 hour after administration
# [6] = APP23 mice, 1 hour after administration, listed as LIMKi
# T1 sequence (P53667 whole entry): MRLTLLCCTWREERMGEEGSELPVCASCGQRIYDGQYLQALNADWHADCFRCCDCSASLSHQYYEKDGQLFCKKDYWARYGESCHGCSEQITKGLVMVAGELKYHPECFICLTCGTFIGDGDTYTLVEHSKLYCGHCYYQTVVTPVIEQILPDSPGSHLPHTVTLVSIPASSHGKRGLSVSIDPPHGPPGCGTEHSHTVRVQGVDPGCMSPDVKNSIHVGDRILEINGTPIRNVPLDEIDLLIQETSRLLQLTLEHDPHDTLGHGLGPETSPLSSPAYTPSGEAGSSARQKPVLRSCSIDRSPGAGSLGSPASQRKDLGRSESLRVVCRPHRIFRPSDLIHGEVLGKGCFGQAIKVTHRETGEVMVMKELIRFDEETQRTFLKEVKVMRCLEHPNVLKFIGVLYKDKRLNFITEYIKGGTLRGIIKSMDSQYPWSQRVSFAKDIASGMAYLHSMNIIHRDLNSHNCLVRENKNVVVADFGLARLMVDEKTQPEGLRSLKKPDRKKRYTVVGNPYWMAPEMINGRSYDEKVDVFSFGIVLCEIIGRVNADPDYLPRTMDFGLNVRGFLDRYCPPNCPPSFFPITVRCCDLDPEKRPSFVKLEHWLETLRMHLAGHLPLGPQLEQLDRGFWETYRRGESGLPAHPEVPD
structure (smiles),measurement,setting,value
Cc1c[nH]c2ncnc(N3CCN(/C(=N\C#N)Nc4cccc(Br)c4)[C@@H](C)C3)c12 [Compound 1],LIMK1 activity,LIMK1,inhibition of the kinase by LIMKi at all concentrations tested
same,Aβ-induced death of cultured neurons (cell viability),[1],dose-dependent protection
same,Aβ-induced dendritic spine loss,[1],dose-dependent protection
same,latency to develop severe seizures,"C57B^1/6 mice; 10 mg/kg 30 minutes prior to PTZ, C57B1/6 mice",increased the latency to develop severe seizures
same,latency to develop lower grade seizures (score<5),C57B^1/6 mice; [4],Delayed latency to develop lower grade seizures
same,mean seizure severity,C57B^1/6 mice; [4],significantly reduced mean seizure severity
same,mean seizure severity,"C57B^1/6 mice; 10 mg/kg i.p. 30 minutes prior to 50 mg/kg PTZ, vs vehicle, listed as LIMKi",Significantly reduced seizure severity
same,cross frequency coupling (CFC),"APP23 mice [2]; APP23 mice, 1 hour after administration, data not shown",re-established
same,amplitude phase in EEG recordings,APP23 mice [2]; [5],normalized
same,modulation index of cross frequency coupling,APP23 mice [2]; [5],normalized
same,amplitude phase in EEG recordings,APP23 mice [2]; [6],corrected 1 hour after LIMKi delivery and no longer different from wt controls
same,modulation index of cross frequency coupling,APP23 mice [2]; [6],corrected 1 hours after LIMKi administration and no longer different from wt controls
same,spike frequency / hypersynchronous discharges in EEG,APP23 mice [2]; APP23 mice,hypersynchronicity significantly decreased
same,spike frequency / hypersynchronous discharges in EEG,"APP23 mice [2]; APP23 mice, listed as LIMKi",significantly reduced spike frequency
same,spike activity in EEG,"APP23 mice [2]; non-transgenic (wt) mice, pre and post injection",No overt spike activity
same,time in target quadrant during MWM probe trials,"APP23 mice [3]; APP23 mice, 10 mg/kg i.p. 3-4 times per week for 4 months, n=8-10",no significant differences to controls
same,learning in Morris water maze,"APP23 mice [3]; APP23 mice, 10 mg/kg i.p. 3-4 times per week from 3 to 7 months of age",improved learning of APP23 mice to vehicle control levels
same,memory performance in MWM,"APP23 mice [3]; APP23 mice, after four months of treatment, tested at 7 months of age",improved memory performance
same,learning in Morris water maze,"APP23 mice [3]; non-transgenic control mice, 10 mg/kg i.p. 3-4 times per week for 4 months, 10 mg/kg",delayed learning
same,learning in Morris water maze,"APP23 mice [3]; non-transgenic control mice, 10 mg/kg i.p. 3-4 times per week for 4 months, listed as LIMKi, 10 mg/kg",moderately delayed learning
